Measurements from the supplement of paper PMC10307832.

Tests used:
Test in all cases: relative viability (nuclei count vs DMSO), 5 days (fraction); higher = more cells survive
[1] = compound: Cc1ccc2nc(NCCN)c3ncc(C)n3c2c1 + COc1cc2c(Oc3ccc(NC(=O)C4(C(=O)Nc5ccc(F)cc5)CC4)cc3F)ccnc2cc1OCCCN1CCOCC1 [Foretinib] (partner 0.25 µM)
Outline: (§1)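 Lung cancer cell lines in 1536-well plates were dosed by pin tool the day after seeding, either with one drug alone or with a fixed anchor-drug dose plus five library-drug doses (not always all listed) in √10 steps. After 5 days, cells were fixed and their nuclei stained in one step (final 0.05% Triton X-100, 1% formaldehyde, 1 ug/ml Hoechst), then counted on 4× images. Relative viability is the nuclei count in treated wells divided by that in vehicle wells. Values are medians of duplicate plates.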

Salubrinal + Pemetrexed = compound: O=C(/C=C/c1ccccc1)NC(NC(=S)Nc1cccc2cccnc12)C(Cl)(Cl)Cl [Salubrinal] + Nc1nc2[nH]cc(CCc3ccc(C(=O)N[C@@H](CCC(=O)O)C(=O)O)cc3)c2c(=O)[nH]1 [Pemetrexed] (partner 0.2 µM)
Outline: as §1

Salubrinal + Lapatinib = compound: O=C(/C=C/c1ccccc1)NC(NC(=S)Nc1cccc2cccnc12)C(Cl)(Cl)Cl [Salubrinal] + CS(=O)(=O)CCNCc1ccc(-c2ccc3ncnc(Nc4ccc(OCc5cccc(F)c5)c(Cl)c4)c3c2)o1 [Lapatinib] (partner 2 µM)
Outline: as §1

Salubrinal + OSI-027 = compound: O=C(/C=C/c1ccccc1)NC(NC(=S)Nc1cccc2cccnc12)C(Cl)(Cl)Cl [Salubrinal] + COc1cccc2cc(-c3nc([C@H]4CC[C@H](C(=O)O)CC4)n4ncnc(N)c34)[nH]c12 [OSI-027] (partner 0.5 µM)
Outline: as §1

Cell Line	relative viability ([1]; first compound 0.04 µM)	relative viability ([1]; first compound 0.1265 µM)	relative viability ([1]; first compound 0.4 µM)	relative viability ([1]; first compound 1.265 µM)	relative viability ([1]; first compound 4 µM)	relative viability (Salubrinal + Pemetrexed; first compound 0.08 µM)	relative viability (Salubrinal + Pemetrexed; first compound 0.253 µM)	relative viability (Salubrinal + Pemetrexed; first compound 0.8 µM)	relative viability (Salubrinal + Pemetrexed; first compound 2.53 µM)	relative viability (Salubrinal + Pemetrexed; first compound 8 µM)	relative viability (Salubrinal + Lapatinib; first compound 0.08 µM)	relative viability (Salubrinal + Lapatinib; first compound 0.253 µM)	relative viability (Salubrinal + Lapatinib; first compound 0.8 µM)	relative viability (Salubrinal + Lapatinib; first compound 2.53 µM)	relative viability (Salubrinal + Lapatinib; first compound 8 µM)	relative viability (Salubrinal + OSI-027; first compound 0.08 µM)	relative viability (Salubrinal + OSI-027; first compound 0.253 µM)	relative viability (Salubrinal + OSI-027; first compound 0.8 µM)	relative viability (Salubrinal + OSI-027; first compound 2.53 µM)	relative viability (Salubrinal + OSI-027; first compound 8 µM)
201T	1.07	1.13	1.1	1.1	1.05	0.356	0.321	0.403	0.318	0.364	1.03	1.06	1.06	1.07	1.06	0.933	0.799	0.863	0.782	0.732
A549	1.08	0.85	0.975	0.921	0.855						1.08	0.954	1.03	0.939	0.886					
A-427	1.09	1.03	0.962	1	0.948	0.957	0.964	1.17	1.03	1.1	1.09	0.966	1.11	0.961	1.03	0.409	0.516	0.568	0.437	0.452
ABC-1	1.22	1.05	1.09	0.839	1.01						1.46	1.35	1.17	1.25	1.15	0.513	0.578	0.712	0.626	0.371
BEN	0.82	0.86	0.657	0.788	0.752	0.744	0.753	0.971	0.846	0.791	0.677	0.732	0.751	0.767	0.894	0.322	0.407	0.318	0.309	0.324
CAL-12T	1.14	0.967	1.13	1.14	0.97	1.4	0.754	1.46	1.07	1.21	0.804	0.688	0.629	0.663	0.636	0.444	0.541	0.606	0.542	0.454
COR-L23	0.966	0.915	0.938	1.01	0.865	0.203	0.205	0.194	0.206	0.196	1.38	0.626	1.37	1	0.539	0.868	0.547	1.1	0.794	0.71
COR-L 105	1.18	0.995	0.86	0.987	1.15	1.25	0.831	1.24	1.04	1.09	0.377	0.317	0.395	0.389	0.35	0.74	0.632	0.758	0.735	0.613
Calu-6	0.855	0.841	0.815	0.833	0.811						1.28	1.03	1.27	1.08	1.06					
ChaGo-K-1	0.897	1.03	0.884	0.82	0.895	0.266	0.274	0.241	0.253	0.375						0.731	0.479	0.581	0.612	0.435
EBC-1	0.0984	0.102	0.098	0.0921	0.0989						0.191	0.289	0.187	0.167	0.198					
EKVX	0.987	1.04	0.866	0.822	0.777	0.411	0.361	0.444	0.385	0.325	0.2	0.239	0.199	0.181	0.216	0.701	0.641	0.657	0.454	0.673
EMC-BAC-2	0.966	0.992	0.988	1.01	1.05	0.42	0.441	0.459	0.473	0.478	0.823	0.815	0.947	0.865	0.938	0.364	0.359	0.41	0.384	0.427
EPLC-272H	0.664	0.809	0.64	0.75	0.692	0.255		0.363	0.342	0.294	0.838	0.804	1.32	0.93	0.761	0.297	0.286	0.293	0.258	0.249
H3255	1.11	0.961	0.744	0.98	0.764	0.562	0.582	0.558	0.557	0.604	0.241	0.253	0.191	0.233	0.226	0.689	0.553	0.748	0.603	0.603
HARA	0.783	0.829	0.903	0.956	0.861	0.254	0.285	0.327	0.273	0.254	0.709	0.651	0.819	0.748	0.828	0.539	0.557	0.582	0.524	0.462
HCC-15	1.08	1.07	1.06	0.885	0.723	0.205	0.266	0.234	0.231	0.211	0.902	0.736	1	0.88	0.875	0.722	0.665	0.824	0.666	0.644
HCC-44						0.641	0.708	0.66	0.698	0.662	0.91	0.743	1.1	0.97	0.939	0.371	0.411	0.759	0.501	0.484
